Assay results from US20230107642A1 (Erasca, Inc., priority 2020, published 2023).

Target: T1, K-Ras G12C (Homo sapiens, UniProt P01116, G12C)
T1 construct: This protein contained 188 amino acids in total, including an N-terminal 6-Histidine tag; made in house; host or cells: E. coli BL21
Test: CAF assay (% CAF; method in Example 7, not in this part)
Format: binding
Settings: 10 uM compound, 1 h incubation

SMILES | % CAF @ 10 uM, 1h
C=CC(=O)N1CCN(c2nc(=O)n3c4c(c(-c5ccc(F)cc5F)c(C(F)(F)F)cc24)SC[C@@H](OC)C3)CC1 [Example 489, (3S)-8-(4-acryloylpiperazin-1-yl)-11-(2,4-difluorophenyl)-3-methoxy-10-(trifluoromethyl)-3,4-dihydro-2H,6H-[1,4]thiazepino[2,3,4-ij]quinazolin-6-one] | 96%
C=CC(=O)N1C[C@H](C)N(c2nc(=O)n3c4c(c(-c5cc(F)c(F)cc5F)c(C(F)(F)F)cc24)SC[C@@H]3COC)C[C@H]1C [Example 491, (3S)-7-((2S,5R)-4-acryloyl-2,5-dimethylpiperazin-1-yl)-3-(methoxymethyl)-9-(trifluoromethyl)-10-(2,4,5-trifluorophenyl)-2H-[1,4]thiazino[2,3,4-ij]quinazolin-5(3H)-one] | 60%
C=CC(=O)N1C[C@H](C)N(c2nc(=O)n3c4c(c(-c5cc(Cl)c(F)cc5F)c(C(F)(F)F)cc24)SC[C@@H]3COC)C[C@H]1C [Example 492, (3S)-7-((2S,5R)-4-acryloyl-2,5-dimethylpiperazin-1-yl)-10-(5-chloro-2,4-difluorophenyl)-3-(methoxymethyl)-9-(trifluoromethyl)-2H-[1,4]thiazino[2,3,4-ij]quinazolin-5(3H)-one] | 63.2%
C=CC(=O)N1C[C@H](C)N(c2nc(=O)n3c4c(c(-c5ccc(F)cc5F)c(C(F)(F)F)cc24)SC[C@@H]3COC)C[C@H]1C [Example 493, (3S)-7-((2S,5R)-4-acryloyl-2,5-dimethylpiperazin-1-yl)-10-(2,4-difluorophenyl)-3-(methoxymethyl)-9-(trifluoromethyl)-2H-[1,4]thiazino[2,3,4-ij]quinazolin-5(3H)-one] | 78.6%
C=CC(=O)N1C[C@H](C)N(c2nc(=O)n3c4c(c(-c5ccc(F)cc5F)c(Cl)cc24)SC[C@@H]3COC)C[C@H]1C [Example 494, (3S)-7-((2S,5R)-4-acryloyl-2,5-dimethylpiperazin-1-yl)-9-chloro-10-(2,4-difluorophenyl)-3-(methoxymethyl)-2H-[1,4]thiazino[2,3,4-ij]quinazolin-5(3H)-one] | 68.7%
C=CC(=O)N1C[C@H](C)N(c2nc(=O)n3c4c(c(-c5cc(Cl)c(F)cc5F)c(Cl)cc24)SC[C@@H]3CN2CCN(CC(F)F)CC2)C[C@H]1C [Example 495, (3S)-7-((2S,5R)-4-acryloyl-2,5-dimethylpiperazin-1-yl)-9-chloro-10-(5-chloro-2,4-difluorophenyl)-3-((4-(2,2-difluoroethyl)piperazin-1-yl)methyl)-2H-[1,4]thiazino[2,3,4-ij]quinazolin-5(3H)-one] | 50.8%
C=CC(=O)N1C[C@H](C)N(c2nc(=O)n3c4c(c(-c5cc(Cl)c(F)cc5F)c(Cl)cc24)SC[C@@H]3COC)C[C@H]1C [Example 496, (3S)-7-((2S,5R)-4-acryloyl-2,5-dimethylpiperazin-1-yl)-9-chloro-10-(5-chloro-2,4-difluorophenyl)-3-(methoxymethyl)-2H-[1,4]thiazino[2,3,4-ij]quinazolin-5(3H)-one] | 65.3%
C=CC(=O)N1C[C@H](C)N(c2nc(=O)n3c4c(c(-c5ccc(F)cc5)c(C(F)(F)F)cc24)SC[C@@H]3COC)C[C@H]1C [Example 497, (S)-7-((2S,5R)-4-acryloyl-2,5-dimethylpiperazin-1-yl)-10-(4-fluorophenyl)-3-(methoxymethyl)-9-(trifluoromethyl)-2H-[1,4]thiazino[2,3,4-ij]quinazolin-5(3H)-one] | 85.1%
C=CC(=O)N1C[C@H](C)N(c2nc(=O)n3c4c(c(-c5ccc(F)cc5F)c(C(F)(F)F)cc24)SC[C@@H]3COCCOC)C[C@H]1C [Example 498, (3S)-7-((2S,5R)-4-acryloyl-2,5-dimethylpiperazin-1-yl)-10-(2,4-difluorophenyl)-3-((2-methoxyethoxy)methyl)-9-(trifluoromethyl)-2H-[1,4]thiazino[2,3,4-ij]quinazolin-5(3H)-one] | 81.2%
C=CC(=O)N1C[C@H](C)N(c2nc(=O)n3c4c(c(-c5cc(Cl)c(F)cc5F)c(Cl)cc24)SC[C@@H]3CN2CCN(C3CC3)CC2)C[C@H]1C [Example 499, (3S)-7-((2S,5R)-4-acryloyl-2,5-dimethylpiperazin-1-yl)-9-chloro-10-(5-chloro-2,4-difluorophenyl)-3-((4-cyclopropylpiperazin-1-yl)methyl)-2H-[1,4]thiazino[2,3,4-ij]quinazolin-5(3H)-one] | 28%
C=CC(=O)N1C[C@H](C)N(c2nc(=O)n3c4c(c(-c5cc(Cl)c(F)cc5F)c(Cl)cc24)SC[C@@H]3CN2C[C@@H]3C[C@H]2CO3)C[C@H]1C [Example 500, (3S)-3-((1S,4S)-2-oxa-5-azabicyclo[2.2.1]heptan-5-ylmethyl)-7-((2S,5R)-4-acryloyl-2,5-dimethylpiperazin-1-yl)-9-chloro-10-(5-chloro-2,4-difluorophenyl)-2H-[1,4]thiazino[2,3,4-ij]quinazolin-5(3H)-one] | 50.6%
C=CC(=O)N1C[C@H](C)N(c2nc(=O)n3c4c(c(-c5ccc(F)cc5F)c(Cl)cc24)SC[C@@H]3COCCOC)C[C@H]1C [Example 501, (3S)-7-((2S,5R)-4-acryloyl-2,5-dimethylpiperazin-1-yl)-9-chloro-10-(2,4-difluorophenyl)-3-((2-methoxyethoxy)methyl)-2H-[1,4]thiazino[2,3,4-ij]quinazolin-5(3H)-one] | 66.8%
C=CC(=O)N1C[C@H](C)N(c2nc(=O)n3c4c(c(-c5cc(Cl)c(F)cc5F)c(Cl)cc24)SC[C@@H]3COCCOC)C[C@H]1C [Example 502, (3S)-7-((2S,5R)-4-acryloyl-2,5-dimethylpiperazin-1-yl)-9-chloro-10-(5-chloro-2,4-difluorophenyl)-3-((2-methoxyethoxy)methyl)-2H-[1,4]thiazino[2,3,4-ij]quinazolin-5(3H)-one] | 65.1%
C=CC(=O)N1[C@H](C)CN(c2nc(=O)n3c4c(c(-c5ccc(F)cc5F)c(C(F)(F)F)cc24)SC[C@@H](OC)C3)C[C@@H]1C [Example 503, (3S)-8-((3S,5R)-4-acryloyl-3,5-dimethylpiperazin-1-yl)-11-(2,4-difluorophenyl)-3-methoxy-10-(trifluoromethyl)-3,4-dihydro-2H,6H-[1,4]thiazepino[2,3,4-ij]quinazolin-6-one] | 96%
C=CC(=O)N1CCN(c2nc(=O)n3c4c(c(-c5ccc(F)cc5F)c(Cl)cc24)SC[C@@H](OC)C3)CC1 [Example 504, (3S)-8-(4-acryloylpiperazin-1-yl)-10-chloro-11-(2,4-difluorophenyl)-3-methoxy-3,4-dihydro-2H,6H-[1,4]thiazepino[2,3,4-ij]quinazolin-6-one] | 96%
C=CC(=O)N1[C@H](C)CN(c2nc(=O)n3c4c(c(-c5ccc(F)cc5F)c(Cl)cc24)SC[C@@H](OC)C3)C[C@@H]1C [Example 505, (3S)-8-((3S,5R)-4-acryloyl-3,5-dimethylpiperazin-1-yl)-10-chloro-11-(2,4-difluorophenyl)-3-methoxy-3,4-dihydro-2H,6H-[1,4]thiazepino[2,3,4-ij]quinazolin-6-one] | 95%
C=CC(=O)N1[C@H](C)CN(c2nc(=O)n3c4c(c(-c5cc(F)c(F)cc5F)c(Cl)cc24)SC[C@@H]3COC)C[C@@H]1C [Example 506, (3S)-7-((3S,5R)-4-acryloyl-3,5-dimethylpiperazin-1-yl)-9-chloro-3-(methoxymethyl)-10-(2,4,5-trif1uorophenyl)-2,3-dihydro-5H-[1,4]thiazino[2,3,4-ij]quinazolin-5-one] | 17.5%
C=CC(=O)N1CCN(c2nc(=O)n3c4c(c(-c5ccc(F)cc5F)c(C(F)(F)F)cc24)S[C@H](COC)C3)[C@@H](C)C1 [Example 507, (2S)-7-((S)-4-acryloyl-2-methylpiperazin-1-yl)-10-(2,4-difluorophenyl)-2-(methoxymethyl)-9-(trifluoromethyl)-2,3-dihydro-5H-[1,4]thiazino[2,3,4-ij]quinazolin-5-one] | 71%
C=CC(=O)N1C[C@H](C)N(c2nc(=O)n3c4c(c(-c5ccc(F)cc5)c(C(F)(F)F)cc24)SC[C@@H]3COCCOC)C[C@H]1C [Example 512, (S)-7-((2S,5R)-4-acryloyl-2,5-dimethylpiperazin-1-yl)-10-(4-fluorophenyl)-3-((2-methoxyethoxy)methyl)-9-(trifluoromethyl)-2H-[1,4]thiazino[2,3,4-ij]quinazolin-5(3H)-one] | 66.1%
C=CC(=O)N1[C@H](C)CN(c2nc(=O)n3c4c(c(-c5ccc(F)cc5F)c(C(F)(F)F)cc24)SC[C@@H]3COC)C[C@@H]1C [Example 513, (3S)-7-((3S,5R)-4-acryloyl-3,5-dimethylpiperazin-1-yl)-10-(2,4-difluorophenyl)-3-(methoxymethyl)-9-(trifluoromethyl)-2H-[1,4]thiazino[2,3,4-ij]quinazolin-5(3H)-one] | 96.2%
C=CC(=O)N1CCN(c2nc(=O)n3c4c(c(-c5ccc(F)cc5F)c(C(F)(F)F)cc24)SC[C@@H]3COC)CC1 [Example 514, (3S)-7-(4-acryloylpiperazin-1-yl)-10-(2,4-difluorophenyl)-3-(methoxymethyl)-9-(trifluoromethyl)-2H-[1,4]thiazino[2,3,4-ij]quinazolin-5(3H)-one] | 96.1%
C=CC(=O)N1C[C@H](C)N(c2nc(=O)n3c4c(c(-c5ccc(F)cc5)c(Cl)cc24)SC[C@@H]3CN2CCN(CC(F)F)CC2)C[C@H]1C [Example 515, (S)-7-((2S,5R)-4-acryloyl-2,5-dimethylpiperazin-1-yl)-9-chloro-3-((4-(2,2-difluoroethyl)piperazin-1-yl)methyl)-10-(4-fluorophenyl)-2H-[1,4]thiazino[2,3,4-ij]quinazolin-5(3H)-one] | 55.1%
C=CC(=O)N1CCN(c2nc(=O)n3c4c(c(-c5ccc(F)cc5)c(C(F)(F)F)cc24)SC[C@@H]3COCOC)[C@@H](C)C1 [Example 516, (S)-7-((S)-4-acryloyl-2-methylpiperazin-1-yl)-10-(4-fluorophenyl)-3-((methoxymethoxy)methyl)-9-(trifluoromethyl)-2H-[1,4]thiazino[2,3,4-ij]quinazolin-5(3H)-one] | 74.4%
